Legend:
[1] = molecular target: T1, T-synthase (UDP-Gal: glycoprotein-N-acetylgalactosamine β-1,3-galactosyltransferase) from Biomphalaria glabrata (Biomphalaria glabrata, UniProt A0A2C9JXL4); test: galactosyl transfer, HPLC; product linkage by NMR; type: cell-based; details: acceptor, 1 mM; 200 μM UDP-Gal, 20 mM MnCl2, 2 mM ATP, 50 mM MES pH 6.5, 37 °C, 2 h; Sf9 lysate, control lysate inactive
T1 construct: full-length 388 aa type II transmembrane protein, C-terminal His-tag, codon-optimised synthetic gene, expressed in Sf9 cells; lysate or captured on anti-His magnetic beads
T1 sequence (A0A2C9JXL4 1-388): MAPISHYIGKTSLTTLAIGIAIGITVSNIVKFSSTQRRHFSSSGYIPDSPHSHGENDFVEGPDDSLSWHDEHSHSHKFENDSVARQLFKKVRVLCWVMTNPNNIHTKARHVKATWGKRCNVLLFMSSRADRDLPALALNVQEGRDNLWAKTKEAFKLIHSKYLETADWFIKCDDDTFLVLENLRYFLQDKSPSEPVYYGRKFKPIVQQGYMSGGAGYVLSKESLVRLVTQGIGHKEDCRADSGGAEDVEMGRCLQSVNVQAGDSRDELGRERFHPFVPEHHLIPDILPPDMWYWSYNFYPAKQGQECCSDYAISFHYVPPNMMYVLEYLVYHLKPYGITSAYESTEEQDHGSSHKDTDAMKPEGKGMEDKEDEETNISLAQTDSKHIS

[2] = molecular target: T1, T-synthase (UDP-Gal: glycoprotein-N-acetylgalactosamine β-1,3-galactosyltransferase) from Biomphalaria glabrata; test: galactosyl transfer to pNP-α-GalNAc, HPLC; type: biochemical; details: 5 nmol added to 20 μL assay; 200 μM UDP-Gal, 1 mM pNP-α-GalNAc, 20 mM MnCl2, 2 mM ATP, 50 mM MES pH 6.5, 37 °C, 2 h; bead-bound enzyme or lysate not stated for this test

% inhibition at 5 nmol [2] | SMILES | galactosyl transfer, HPLC; product linkage by NMR [1]
 | CC(=O)N[C@H]1[C@@H](Oc2ccc([N+](=O)[O-])cc2)O[C@H](CO)[C@H](O)[C@@H]1O [pNP-α-GalNAc] | the identity of the product pNP-α-GalNAc-β-1,3-Gal was clearly confirmed
~ 50% | O=c1ccn([C@@H]2O[C@H](COP(=O)(O)OP(=O)(O)OP(=O)(O)O)[C@@H](O)[C@H]2O)c(=O)[nH]1 [UTP] | 
~ 50% | O=c1ccn([C@@H]2O[C@H](COP(=O)(O)O)[C@@H](O)[C@H]2O)c(=O)[nH]1 [UMP] | 

— publication PMC9865085, “Expression and Characterisation of the First Snail-Derived UDP-Gal: Glycoprotein-N-acetylgalactosamine β-1,3-Galactosyltransferase (T-Synthase) from Biomphalaria glabrata” (Molecules, 2023)
